This note sets out measurements from patent US8580965B2, “Substituted sulfonamide compounds” (Gruenenthal GmbH, priority 2006, dated 2013).

Assay [1] deals with T1, human B1R receptor (bradykinin 1 receptor) (Homo sapiens, UniProt P46663).
T1 construct: host or cells: CHO K1 cells (hB1R cells)
T1 sequence (P46663 1-353): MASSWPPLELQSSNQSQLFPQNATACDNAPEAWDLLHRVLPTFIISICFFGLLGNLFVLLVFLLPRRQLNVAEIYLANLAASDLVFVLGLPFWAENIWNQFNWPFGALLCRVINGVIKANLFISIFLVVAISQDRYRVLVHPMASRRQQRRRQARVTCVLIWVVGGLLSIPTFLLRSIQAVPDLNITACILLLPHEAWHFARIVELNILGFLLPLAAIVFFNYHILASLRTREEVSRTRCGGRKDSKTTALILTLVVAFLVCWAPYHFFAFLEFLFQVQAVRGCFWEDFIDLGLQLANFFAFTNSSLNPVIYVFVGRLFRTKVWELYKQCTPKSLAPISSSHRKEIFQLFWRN
The assay can be described thus: FLIPR Ca2+ assay (Fluo-4) on CHO K1 cells stably transfected with the human B1R gene; % activation and % inhibition at 10 μM. Format: cell-based. Particulars: CHO K1 hB1R cells, Ca2+ inflow after 0.5 nM Lys-Des-Arg9-bradykinin; for inhibition at 10 µM: CHO-K1, test substance 10 μM, read-out: B1R antagonism, human [10 μM] % inhibition; for B1R antagonism, human [10 μM] % inhibition: test substance 10 μM. The essentials: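 Fluo-4 Ca2+ flux on FLIPR in stable hB1R or rB1R CHO K1 lines, two additions. Agonism: 10 µM compound versus 0.5 nM Lys-Des-Arg9-BK (human) or 100 nM Des-Arg9-BK (rat); antagonism: same agonists applied 10 min later, suppression expressed against maximum achievable inhibition.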

Assay [2] concerns the target T2, B1R receptor of the rat (bradykinin 1 receptor) (Rattus norvegicus, UniProt P97583).
T2 construct: host or cells: CHO K1 cells (rB1R cells)
T2 sequence (P97583 1-337): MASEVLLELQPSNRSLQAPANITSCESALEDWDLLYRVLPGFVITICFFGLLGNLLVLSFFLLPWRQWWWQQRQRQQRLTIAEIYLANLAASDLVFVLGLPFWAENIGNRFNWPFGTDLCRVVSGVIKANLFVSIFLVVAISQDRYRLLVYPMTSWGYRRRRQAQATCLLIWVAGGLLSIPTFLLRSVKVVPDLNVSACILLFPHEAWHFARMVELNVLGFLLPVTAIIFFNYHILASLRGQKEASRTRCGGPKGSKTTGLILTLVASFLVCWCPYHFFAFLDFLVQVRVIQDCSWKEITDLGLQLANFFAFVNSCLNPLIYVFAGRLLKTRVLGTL
Kind of assay: FLIPR Ca2+ assay (Fluo-4) on CHO K1 cells stably transfected with the B1R gene of the rat; % activation and % inhibition at 10 μM. Format: cell-based. The following applies: CHO K1 rB1R cells, Ca2+ inflow after 100 nM Des-Arg9-bradykinin; for inhibition at 10 µM: CHO-K1, test substance 10 μM, read-out: B1R antagonism, rat [10 μM] % inhibition; for B1R antagonism, rat [10 μM] % inhibition: test substance 10 μM. How it is done:
The agonistic or antagonistic action of substances can be quantified on the bradykinin receptor 1 (B1R) of the species human and rat with ectopically expressing cell lines (CHO K1 cells) and with the aid of a Ca^2+-sensitive dye (Fluo-4) using a fluorescent imaging plate reader (FLIPR). The indication in % activation is based on the Ca^2+ signal after addition of Lys-Des-Arg^9-bradykinin (0.5 nM) or Des-Arg^9-bradykinin (100 nM). Antagonists result in a suppression of the Ca^2+ influx following administration of the agonist. The % inhibition in comparison with the maximum achievable inhibition is indicated.
Functional Investigation on the Bradykinin 1 Receptor (B1R)
The agonistic or antagonistic action of substances can be determined on the bradykinin 1 receptor (B1R) of the human and rat species with the following assay. According to this assay, the Ca^2+ inflow through the channel is quantified with the aid of a Ca^2+-sensitive dyes (Fluo-4 type, Molecular Probes Europe BV, Leiden, The Netherlands) in a fluorescent imaging plate reader (FLIPR, Molecular Devices, Sunnyvale, USA).
Chinese Hamster Ovary cells (CHO K1 cells) which are stably transfected with the human B1R gene (hB1R cells, Euroscreen s.a., Gosselies, Belgium) or the B1R gene of the rat (rB1R cells, Axxam, Milan, Italy) are used. For functional investigations, these cells are plated-out on black 96-well plates with a clear base (BD Biosciences, Heidelberg, Germany) in a density of 20,000-25,000 cells/well. Overnight, the cells are incubated at 37° C. and 5% CO2 in culture medium (hB1R cells: Nutrient Mixture Ham's F12, Gibco Invitrogen GmbH, Karlsruhe, Germany; rB1R cells: D-MEM/F12, Gibco Invitrogen, Karlsruhe, Germany) with 10 vol. % FBS (foetal bovine serum, Gibco Invitrogen GmbH, Karlsruhe, Germany). On the following day, the cells are loaded with 2.13 μM Fluo-4 (Molecular Probes Europe BV, Leiden, The Netherlands) in HBSS buffer (Hank's buffered saline solution, Gibco Invitrogen GmbH, Karlsruhe, Germany) […] (Sigma-Aldrich, Taufkirchen, Germany) and 10 mM HEPES (Sigma-Aldrich, Taufkirchen, Germany) for 60 min at 37° C. The plates are subsequently washed 2× with HBSS buffer, and HBSS buffer which additionally contains 0.1% BSA (bovine serum albumin; Sigma-Aldrich, Taufkirchen, Germany), 5.6 mM glucose and 0.05% gelatine (Merck KGaA, Darmstadt, Germany) is added. After a further incubation of 20 minutes at room temperature, the plates are inserted into the FLIPR for Ca^2+ measurement. The Ca^2+-dependent fluorescence is measured here before and after addition of substances (λex=488 nm, λem=540 nm). The quantification is effected by measurement of the highest fluorescence intensity (FC, fluorescence counts) over time.
The FLIPR protocol comprises 2 additions of substance. Test substances (10 μM) are first pipetted on to the cells and the Ca^2+ inflow is compared with the control (hB1R: Lys-Des-Arg^9-bradykinin 0.5 nM; rB1R: Des-Arg^9-bradykinin 100 nM). The value in % activation based on the Ca^2+ signal after addition of Lys-Des-Arg^9-bradykinin (0.5 nM) or Des-Arg^9-bradykinin (100 nM) is obtained therefrom. After incubation for 10 minutes, 0.5 nM Lys-Des-Arg^9-bradykinin (hB1R) or 100 nM Des-Arg^9-bradykinin (rB1R) are applied and the inflow of Ca^2+ is likewise determined. Antagonists lead to a suppression of the Ca^2+ inflow. % inhibition compared with the maximum inhibition which can be achieved is calculated. The compounds show a good activity on the human and on the rat receptor. The following data were determined by way of example: […]

The structures appear in SMILES notation. Where a name gives a salt, the structure may show the parent alone.

By inhibition is commonly meant the change of the read-out against control, counted positive when it falls. For the compound `CN(CCOCC(=O)N1CCC(O)(c2cccnc2)CC1)S(=O)(=O)c1c(Cl)cc(Cl)cc1Cl` [Example 2, 2,4,6-trichloro-N-{2-[2-(4′-hydroxy-3′,4′,5′,6′-tetrahydro-2′H-[3,4′]bipyridinyl-1′-yl)-2-oxo-ethoxy]-ethyl}-N-methyl-phenylsulfonamide], the inhibition at 10 µM in assay [1] was 104%; in assay [2] it was 103%.

On to `COc1cc(C)c(S(=O)(=O)N(C)CCOCC(=O)N2CCC(O)(c3cccnc3)CC2)c(C)c1` [Example 3, N-(2-(2-(4-hydroxy-4-(pyridin-3-yl)piperidin-1-yl)-2-oxoethoxy)ethyl)-4-methoxy-N,2,6-trimethylphenylsulfonamide hydrochloride], for which the “B1R antagonism, human [10 μM] % inhibition” value in assay [1] (hydrochloride) is listed as 102.19%. Moreover, the “B1R antagonism, rat [10 μM] % inhibition” value in assay [2] (hydrochloride) was determined as 103.06%.

Take `COc1cc(C)c(S(=O)(=O)N(C)CCOCC(=O)N2CCC(O)(c3ccccn3)CC2)c(C)c1` [Example 4, N-{2-[2-(4′-hydroxy-3′,4′,5′,6-tetrahydro-2′H-[2,4′]bipyridinyl-1′-yl)-2-oxo-ethoxy]-ethyl}-4-methoxy-2,6,N-trimethyl-phenylsulfonamide]: the “B1R antagonism, human [10 μM] % inhibition” value in assay [1] stood at 101.69%. For the same compound, in assay [2], the “B1R antagonism, rat [10 μM] % inhibition” value came out at 105.56%.

With `CN(CCOCC(=O)N1CCC(O)(c2cccnc2)CC1)S(=O)(=O)c1c(Cl)cc(Cl)cc1Cl` [Example 5, 2,4,6-trichloro-N-(2-(2-(4-hydroxy-4-(pyridin-3-yl)piperidin-1-yl)-2-oxoethoxy)ethyl)-N-methylphenylsulfonamide hydrochloride], in assay [1] (hydrochloride), the “B1R antagonism, human [10 μM] % inhibition” value stood at 101.04%. For the same compound, the “B1R antagonism, rat [10 μM] % inhibition” value in assay [2] (hydrochloride) is given as 95.11%.

On to `CN(CCOCC(=O)N1CCC(O)(c2ccccn2)CC1)S(=O)(=O)c1c(Cl)cc(Cl)cc1Cl` [Example 6, 2,4,6-trichloro-N-{2-[2-(4′-hydroxy-3′,4′,5′,6′-tetrahydro-2′H-[2,4′]bipyridinyl-1′-yl)-2-oxo-ethoxy]-ethyl}-N-methyl-phenylsulfonamide], for which the inhibition at 10 µM in assay [1] was determined as 100%; in assay [2] it was 93.9%.

For the compound `COc1cc(C)c(S(=O)(=O)N2CCC(OCC(=O)N3CCC(O)(Cc4ccccc4)CC3)C2)c(C)c1C` (stereo not shown) [Example 7, 1-(4-benzyl-4-hydroxy-piperidin-1-yl)-2-[1-(4-methoxy-2,3,6-trimethyl-phenylsulfonyl)-pyrrolidin-3-yloxy]-ethanone], the inhibition at 10 µM was 99.8% in assay [1] and 35.2% in assay [2].

With `COc1cc(C)c(S(=O)(=O)N2CCC(OCC(=O)N3CCC(O)(Cc4ccccc4)CC3)CC2)c(C)c1C` [Example 8, 1-(4-benzyl-4-hydroxy-piperidin-1-yl)-2-[1-(4-methoxy-2,3,6-trimethyl-phenylsulfonyl)-piperidin-4-yloxy]-ethanone], the figures for the inhibition at 10 µM in assay [1] and in assay [2] were 97.4% and 33.3%, respectively.

As for `CN(CCOCC(=O)N1CCC(O)(Cc2ccccc2)CC1)S(=O)(=O)c1c(Cl)cc(Cl)cc1Cl` [Example 9, N-{2-[2-(4-benzyl-4-hydroxy-piperidin-1-yl)-2-oxo-ethoxy]-ethyl}-2,4,6-trichloro-N-methyl-phenylsulfonamide], the figures for the inhibition at 10 µM in assay [1] and in assay [2] were 95.7% and 91.1%, respectively.

For the compound `CN(CCOCC(=O)N1CCC(O)(c2ccccn2)CC1)S(=O)(=O)c1c(Cl)cccc1Cl` [Example 10, 2,6-dichloro-N-{2-[2-(4′-hydroxy-3′,4′,5′,6′-tetrahydro-2′H-[2,4′]bipyridinyl-1′-yl)-2-oxo-ethoxy]-ethyl}-N-methyl-phenylsulfonamide], the inhibition at 10 µM in assay [1] came out at 90.3%; in assay [2], 73.6%.

Consider `O=C(COC1CCN(S(=O)(=O)c2ccc(Cl)cc2Cl)C1)N1CCC(O)(c2ccccn2)CC1` (stereo not shown) [Example 17, 2-[1-(2,4-dichloro-phenylsulfonyl)-pyrrolidin-3-yloxy]-1-(4′-hydroxy-3′,4′,5′,6′-tetrahydro-2′H-[2,4′]bipyridinyl-1′-yl)-ethanone], for which the inhibition at 10 µM in assay [1] was found to be 28%; in assay [2], 1.79%.

Consider `CN(CCOCC(=O)N1CCC(O)(c2ccccn2)CC1)S(=O)(=O)c1ccc(OC(F)(F)F)cc1` [Example 20, N-{2-[2-(4′-hydroxy-3′,4′,5′,6′-tetrahydro-2′H-[2,4′]bipyridinyl-1′-yl)-2-oxo-ethoxy]-ethyl}-N-methyl-4-trifluoromethoxy-phenylsulfonamide], for which the inhibition at 10 µM in assay [1] came out at 22.2%; in assay [2] it was 17.1%.

Take `COc1cc(C)c(S(=O)(=O)N2CCC(OCC(=O)N3CCC(O)(c4ccccn4)CC3)C2)c(C)c1` (stereo not shown) [Example 21, 1-(4′-hydroxy-3′,4′,5′,6′-tetrahydro-2′H-[2,4′]bipyridinyl-1′-yl)-2-[1-(4-methoxy-2,6-dimethyl-phenylsulfonyl)-pyrrolidin-3-yloxy]-ethanone]: the inhibition at 10 µM amounted to 20.5% in assay [1] and 71.1% in assay [2].

Regarding `COc1ccc(S(=O)(=O)N2Cc3ccccc3CC2COCC(=O)N2CCC(O)(Cc3ccccc3)CC2)cc1` (stereo not shown) [Example 23, 1-(4-benzyl-4-hydroxy-piperidin-1-yl)-2-[2-(4-methoxy-phenylsulfonyl)-1,2,3,4-tetrahydro-isoquinolin-3-ylmethoxy]-ethanone], the inhibition at 10 µM was found to be 15.7% in assay [1] and 56.9% in assay [2].

For the compound `Cc1ccc(S(=O)(=O)N2CCC(OCC(=O)N3CCC(O)(Cc4ccccc4)CC3)C2)cc1` (stereo not shown) [Example 24, 1-(4-benzyl-4-hydroxy-piperidin-1-yl)-2-[1-(toluene-4-sulfonyl)-pyrrolidin-3-yloxy]-ethanone], the inhibition at 10 µM is 12.1% in assay [1] and 6.88% in assay [2].
